Biological target: T1, GST-GK derived from human liver GK (Homo sapiens, UniProt P35557)
T1 construct: made in house; host or cells: Escherichia coli DH5α
T1 sequence (P35557 1-466 isoform P35557-2): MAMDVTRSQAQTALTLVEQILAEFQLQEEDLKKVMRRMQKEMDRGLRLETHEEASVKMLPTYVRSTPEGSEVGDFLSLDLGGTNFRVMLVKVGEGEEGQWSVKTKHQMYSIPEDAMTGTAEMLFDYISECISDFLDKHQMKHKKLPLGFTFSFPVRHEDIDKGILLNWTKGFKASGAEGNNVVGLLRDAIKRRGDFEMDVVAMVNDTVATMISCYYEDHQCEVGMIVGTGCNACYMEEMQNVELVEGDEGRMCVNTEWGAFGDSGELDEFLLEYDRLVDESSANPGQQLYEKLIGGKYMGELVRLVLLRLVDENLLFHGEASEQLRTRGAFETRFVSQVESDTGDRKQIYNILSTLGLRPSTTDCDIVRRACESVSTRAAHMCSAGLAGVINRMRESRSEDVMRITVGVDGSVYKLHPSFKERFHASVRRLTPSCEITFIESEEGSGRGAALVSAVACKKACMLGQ
Test: In vitro GK activity measurement test (G6PDH-coupled, OD340)
Assay type: biochemical
Conditions: test compound 1 μmol/L; glucose 2.5 mmol/L; 25° C.; OD340 slope with compound / without compound; read-out: GK activation rate (%)
Excerpt: cDNA (GenBank Accession No. NM_033507, human glucokinase, variant 2) encoding human liver-type GK polypeptide was cloned by performing a polymerase chain reaction (hereinafter referred to as “PCR”) using a human liver cDNA library (Human liver QUICK-Clone cDNA, TAKARA BIO INC.), and the thus cloned cDNA was then introduced into an expression vector (pGEX-3X, GE Healthcare Japan) for glutathione S transferase (hereinafter referred to as GST) fusion protein expression. The resulting vector was introduced into Escherichia coli (Competent high DH5α, Toyobo Co., Ltd.), and the transformed Escherichia coli was then cultured at 37° C. Thereafter, Isopropyl β-D-1-thiogalactopyranoside (final concentration: 1 mmol/L, Sigma Aldrich Japan) was added to the culture, and the obtained mixture was then cultured at 30° C. for 3 hours. Thereafter, a cell mass was recovered. The recovered cell mass was subjected to freezing-and-thawing, and the resulting cell mass was then suspended in phosphate buffer with final concentration of 1% Triton X-100, followed by disintegration with an ultrasonic disruptor. The homogenate was centrifuged at 33,200 rpm at 4° C. for 1 hour. Thereafter, the supernatant was recovered, and a GST-GK fusion protein was then purified using a glutathione column (GSTrap FF, GE Healthcare Japan). The obtained GST-GK fusion protein was divided into some portions each having a small volume, and the thus divided proteins were then preserved at −80° C.
A GK assay method was carried out at 25° C. at a final incubation volume of 100 μL in a flat-bottom 96-well assay plate. An assay buffer comprised 25 mmol/L Hepes buffer (pH 7.1), 25 mmol/L KCl, 2.5 mmol/L or 10 mmol/L D-glucose, 5 mmol/L ATP, 1 mmol/L nicotinamide adenine dinucleotide phosphate (abbreviated as NADP), 2 mmol/L MgCl2, 1 mmol/L dithiothreitol (DTT), 2 units/mL glucose-6 phosphate dehydrogenase (G6PDH), and 1 μg/mL GST-GK derived from human liver GK. ATP, G6PDH, and NADP were purchased from Roche Diagnostics. […] The thus mixed solution was preincubated in an incubator in which the temperature was controlled at 25° C. for 15 minutes. Subsequently, the reaction was initiated by adding 10 μL of the GST-GK solution to the reaction mixture, resulting in a final concentration of 0.1 μg/mL. After initiation of the reaction, an increase in the optical concentration at 340 nm (OD340) was monitored with a microplate spectrophotometer (Varsamax, Molecular Devices Japan K.K.) every 10 seconds over an incubation period of 10 minutes. An inclination of the OD340 increase was defined as raw data. The GK activating rate was indicated as a numerical value obtained from the expression: (Inclination of OD340 increase by addition of the test compound)/(inclination of OD340 increase without addition of the test compound). The results of the GK activating rate obtained at a test compound concentration of 1 μmol/L under the condition of a glucose concentration of 2.5 mmol/L are shown in the following table.

**Q.** For `CCOC(=O)CSc1cnc(NC(=O)N2C[C@]3(CCN(C(=O)OC)C3)c3cc(Br)ccc32)s1` [Example 334, (S)-methyl 5-bromo-1-((5-((2-ethoxy-2-oxoethyl)thio)thiazol-2-yl)carbamoyl)spiro[indoline-3,3′-pyrrolidine]-1′-carboxylate], which activity at 1 µM is on record?
**A.** The activity at 1 µM was 705%.

**Q.** How did the activity at 1 µM turn out when `COC(=O)N1CCC2(C1)CN(C(=O)Nc1ncc(SCCC(=O)N3CCOCC3)s1)c1ccc(Cl)cc12` (stereo not shown) [Example 154, methyl 5-chloro-1-((5-((3-morpholino-3-oxopropyl)thio)thiazol-2-yl)carbamoyl)spiro[indoline-3,3′-pyrrolidine]-1′-carboxylate] was run?
**A.** Its activity at 1 µM is 473%.

**Q.** With `COc1ccc2nc(NC(=O)N3CC4(CCN(C(C)=O)C4)c4cc(S(=O)(=O)NCc5ccco5)ccc43)sc2n1` (stereo not shown) [Example 271, 1′-Acetyl-5-(N-(furan-2-ylmethyl)sulfamoyl)-N-(5-methoxythiazolo[5,4-b]pyridin-2-yl)spiro[indoline-3,3′-pyrrolidine]-1-carboxamide] as the compound, how does the activity at 1 µM read?
**A.** The activity at 1 µM was 578%.

**Q.** How did the activity at 1 µM turn out when `COc1ccc2nc(NC(=O)N3CC4(CCN(C(C)=O)C4)c4cc(S(=O)(=O)NCc5ccccc5F)ccc43)sc2n1` (stereo not shown) [Example 269, 1′-Acetyl-5-(N-(2-fluorobenzyl)sulfamoyl)-N-(5-methoxythiazolo[5,4-b]pyridin-2-yl)spiro[indoline-3,3′-pyrrolidine]-1-carboxamide] was run?
**A.** Its activity at 1 µM is 640%.

**Q.** Which activity at 1 µM does the source give for `CNC(=O)CCNC(=O)N1CCC2(C1)CN(C(=O)Nc1ncc(Cl)s1)c1ccc(Cl)cc12` (stereo not shown) [Example 465, 5-Chloro-N1-(5-chlorothiazol-2-yl)-N1′-(3-(methylamino)-3-oxopropyl)spiro[indoline-3,3′-pyrrolidine]-1,1′-dicarboxamide] here?
**A.** The activity at 1 µM was 474%.

**Q.** `COC(=O)N1CC[C@@]2(C1)CN(C(=O)Nc1nc3ccc(OC)nc3s1)c1ccc(S(=O)(=O)N(CCN(C)C)Cc3ccccc3)cc12` [Example 347, (S)-methyl 5-(N-benzyl-N-(2-(dimethylamino)ethyl)sulfamoyl)-1-((5-methoxythiazolo[5,4-b]pyridin-2-yl)carbamoyl)spiro[indoline-3,3′-pyrrolidine]-1′-carboxylate] was tested. Which activity at 1 µM did it give?
**A.** The activity at 1 µM was 611%.

**Q.** Which activity at 1 µM does the source give for `CONC(=O)CCCSc1cnc(NC(=O)N2CC3(CCN(C(=O)OC)C3)c3cc(Cl)ccc32)s1` (stereo not shown) [Example 168, methyl 5-chloro-1-((5-((4-(methoxyamino)-4-oxobutyl)thio)thiazol-2-yl)carbamoyl)spiro[indoline-3,3′-pyrrolidine]-1′-carboxylate] here?
**A.** The activity at 1 µM was 462%.

**Q.** For `CNC(=O)C(=O)N1CCC2(C1)CN(C(=O)Nc1ncc(Cl)s1)c1ccc(Cl)cc12` (stereo not shown) [Example 46, 5-chloro-N-(5-chlorothiazol-2-yl)-1′-(2-(methylamino)-2-oxoacetyl)spiro[indoline-3,3′-pyrrolidine]-1-carboxamide], which activity at 1 µM is on record?
**A.** Its activity at 1 µM is 499%.

**Q.** For `CNC(=O)CCSc1cnc(NC(=O)N2CC3(CCN(C(=O)OC)C3)c3cc(Cl)ccc32)s1` (stereo not shown) [Example 151, methyl 5-chloro-1-((5-((3-(methylamino)-3-oxopropyl)thio)thiazol-2-yl)carbamoyl)spiro[indoline-3,3′-pyrrolidine]-1′-carboxylate], which activity at 1 µM is on record?
**A.** The activity at 1 µM was 656%.

**Q.** Which activity at 1 µM does the source give for `COC(=O)N1CCC2(C1)CN(C(=O)Nc1ncc(SCCCO)s1)c1ccc(Cl)cc12` (stereo not shown) [Example 161, Methyl 5-chloro-1-((5-((3-hydroxypropyl)thio)thiazol-2-yl)carbamoyl)spiro[indoline-3,3′-pyrrolidine]-1′-carboxylate] here?
**A.** The activity at 1 µM was 514%.

**Q.** Which activity at 1 µM does the source give for `CCNC(=O)N1CCC2(C1)CN(C(=O)Nc1ncc(Cl)s1)c1ccc(Cl)cc12` (stereo not shown) [Example 379, 5-Chloro-N1-(5-chlorothiazol-2-yl)-N1′-ethylspiro[indoline-3,3′-pyrrolidine]-1,1′-dicarboxamide] here?
**A.** The activity at 1 µM was 554%.

**Q.** Which activity at 1 µM does the source give for `COCCN(Cc1ccccc1)S(=O)(=O)c1ccc2c(c1)C1(CCN(C(C)=O)C1)CN2C(=O)Nc1nc2ccc(OC)nc2s1` (stereo not shown) [Example 288, 1′-Acetyl-5-(N-benzyl-N-(2-methoxyethyl)sulfamoyl)-N-(5-methoxythiazolo[5,4-b]pyridin-2-yl)spiro[indoline-3,3′-pyrrolidine]-1-carboxamide] here?
**A.** Its activity at 1 µM is 793%.

**Q.** How did the activity at 1 µM turn out when `COC(=O)NCCCSc1cnc(NC(=O)N2CC3(CCN(C(=O)OC)C3)c3cc(Cl)ccc32)s1` (stereo not shown) [Example 455, methyl 5-chloro-1-((5-((3-((methoxycarbonyl)amino)propyl)thio)thiazol-2-yl)carbamoyl)spiro[indoline-3,3′-pyrrolidine]-1′-carboxylate] was run?
**A.** Its activity at 1 µM is 606%.

**Q.** Which activity at 1 µM does the source give for `CNC(=O)N1CCC2(C1)CN(C(=O)Nc1ncc(Cl)s1)c1ccc(C(F)(F)F)cc12` (stereo not shown) [Example 432, N1-(5-Chlorothiazol-2-yl)-N1′-methyl-5-(trifluoromethyl)spiro[indoline-3,3′-pyrrolidine]-1,1′-dicarboxamide] here?
**A.** Its activity at 1 µM is 613%.

**Q.** How did the activity at 1 µM turn out when `COC(=O)N1CCC2(C1)CN(C(=O)Nc1ncc(SCCCC(=O)N3CC(O)C3)s1)c1ccc(Cl)cc12` (stereo not shown) [Example 170, methyl 5-chloro-1-((5-((4-(3-hydroxyazetidin-1-yl)-4-oxobutyl)thio)thiazol-2-yl)carbamoyl)spiro[indoline-3,3′-pyrrolidine]-1′-carboxylate] was run?
**A.** The activity at 1 µM was 506%.

**Q.** `CNC(=O)CCCNC(=O)N1CCC2(C1)CN(C(=O)Nc1ncc(Cl)s1)c1ccc(Cl)cc12` (stereo not shown) [Example 472, 5-Chloro-N1-(5-chlorothiazol-2-yl)-N1′-(4-(methylamino)-4-oxobutyl)spiro[indoline-3,3′-pyrrolidine]-1,1′-dicarboxamide] was tested. Which activity at 1 µM did it give?
**A.** The activity at 1 µM was 456%.

**Q.** With `COC(=O)N1CCC2(C1)CN(C(=O)Nc1ncc(SC(C)CO)s1)c1ccc(Cl)cc12` (stereo not shown) [Example 141, methyl 5-chloro-1-((5-((1-hydroxypropan-2-yl)thio)thiazol-2-yl)carbamoyl)spiro[indoline-3,3′-pyrrolidine]-1′-carboxylate] as the compound, how does the activity at 1 µM read?
**A.** The activity at 1 µM was 574%.

**Q.** For `O=C(CCNC(=O)N1CCC2(C1)CN(C(=O)Nc1ncc(Cl)s1)c1ccc(Cl)cc12)N1CCC1` (stereo not shown) [Example 466, N1′-(3-(Azetidin-1-yl)-3-oxopropyl)-5-chloro-N1-(5-chlorothiazol-2-yl)spiro[indoline-3,3′-pyrrolidine]-1,1′-dicarboxamide], which activity at 1 µM is on record?
**A.** Its activity at 1 µM is 446%.

**Q.** With `CNC(=O)N1CCC2(C1)CN(C(=O)Nc1ncc(OC)s1)c1ccc(C(F)(F)F)cc12` (stereo not shown) [Example 439, N1-(5-Methoxythiazol-2-yl)-N1′-methyl-5-(trifluoromethyl)spiro[indoline-3,3′-pyrrolidine]-1,1′-dicarboxamide] as the compound, how does the activity at 1 µM read?
**A.** The activity at 1 µM was 520%.

**Q.** Which activity at 1 µM does the source give for `O=C(NCCCCO)N1CCC2(C1)CN(C(=O)Nc1ncc(Cl)s1)c1ccc(Cl)cc12` (stereo not shown) [Example 470, 5-chloro-N1-(5-chlorothiazol-2-yl)-N1′-(4-hydroxybutyl)spiro[indoline-3,3′-pyrrolidine]-1,1′-dicarboxamide] here?
**A.** The activity at 1 µM was 459%.

**Q.** How did the activity at 1 µM turn out when `COCCN(CC1CC1)S(=O)(=O)c1ccc2c(c1)C1(CCN(C(C)=O)C1)CN2C(=O)Nc1nc2ccc(OC)nc2s1` (stereo not shown) [Example 300, 1′-Acetyl-5-(N-(cyclopropylmethyl)-N-(2-methoxyethyl)sulfamoyl)-N-(5-methoxythiazolo[5,4-b]pyridin-2-yl)spiro[indoline-3,3′-pyrrolidine]-1-carboxamide] was run?
**A.** Its activity at 1 µM is 689%.

**Q.** With `CNC(=O)N1CCC2(C1)CN(C(=O)Nc1ncc(Cl)s1)c1ccc(Cl)cc12` (stereo not shown) [Example 373, 5-chloro-N1-(5-chlorothiazol-2-yl)-N1′-methylspiro[indoline-3,3′-pyrrolidine]-1,1′-dicarboxamide] as the compound, how does the activity at 1 µM read?
**A.** Its activity at 1 µM is 476%.
